# Assay results: publication PMC4558515, “Exploring the role of MKK7 in excitotoxicity and cerebral ischemia: a novel pharmacological strategy against brain injury” (Cell Death & Disease, 2015)
# Residues, ends and D or L forms follow the SMILES beside them. No end group written: not given here.
# B1: GADD45β_(69–86) peptide (peptide)
# peptide: IALQIHFTLIQSFCCDND
# modifications: not fully specified (C-terminus); cysteine pairing not given here
# notes: growth arrest and DNA damage-inducible 45β (GADD45β), residues 69-86 (the α-helix)
# B2: GADD45β: growth arrest and DNA damage-inducible 45β protein, binds MKK7 (protein, UniProt O75293 1-160, looked up)
# Growth arrest and DNA …: MTLEELVACDNAAQKMQTVTAAVEELLVAAQRQDRLTVGVYESAKLMNVDPDSVVLCLLAIDEEEEDDIALQIHFTLIQSFCCDNDINIVRVSGMQRLAQLLGEPAETQGTTEARDLHCLLVTNPHTDAWKSHGLVEVASYCEESRGNNQWVPYISLQER
# Tests used:
# [1] = target: T1, human recombinant full-length MKK7 (Homo sapiens, UniProt O14733); test: SPR binding of GADD45β69–86 to immobilized recombinant MKK7 (ProteOn XPR36); conditions: heterogenous ligand model
# T1 construct: human recombinant full-length MKK7 (residues M1-R419, as in NCBI/Protein entry NP_660186.1); purchased ProQinase GmbH, Freiburg, Germany
# T1 sequence (O14733 1-419): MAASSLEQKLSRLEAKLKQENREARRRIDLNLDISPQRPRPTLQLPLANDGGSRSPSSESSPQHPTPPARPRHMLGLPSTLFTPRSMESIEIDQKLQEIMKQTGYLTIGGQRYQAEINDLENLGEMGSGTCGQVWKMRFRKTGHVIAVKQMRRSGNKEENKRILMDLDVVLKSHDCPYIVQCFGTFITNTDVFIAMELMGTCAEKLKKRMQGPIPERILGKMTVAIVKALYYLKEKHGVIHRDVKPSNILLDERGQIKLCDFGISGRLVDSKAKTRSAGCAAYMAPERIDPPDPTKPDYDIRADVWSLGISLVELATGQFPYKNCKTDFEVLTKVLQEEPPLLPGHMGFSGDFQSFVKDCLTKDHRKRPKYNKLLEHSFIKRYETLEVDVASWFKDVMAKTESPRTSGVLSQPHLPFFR
# Experimental: Figure 2 GADD45β69–86 interacts with recombinant MKK7. Starting at time 0, the indicated concentrations of GADD45β69–86 were injected for 150 s over SPR sensor surfaces on which 5000 RUs of human recombinant MKK7 had been previously captured by amine coupling. The SPR chip was then washed with buffer alone to monitor ligand dissociation. Fitted sensorgrams show GADD45β69–86 binding to recombinant MKK7 in RUs. The data were obtained by subtracting the reference channels, containing bovine serum albumin or no polypeptides.
# Binding studies were performed on a ProteOn XPR36 Protein Interaction Array system (Bio-Rad Laboratories, Hercules, CA, USA). Detection of GADD45β69–86 interaction with MKK7 was performed by immobilizing ~5000 resonance units (RUs) of human recombinant full-length MKK7 (residues M1-R419, as in NCBI/Protein entry NP_660186.1; ProQinase GmbH, Freiburg, Germany) on the surface of a sensor chip (GL-C chip, Bio-Rad) by amine-coupling chemistry. GADD45β69–86 molecules were then perfused over the chip for 150 s to allow association, followed by 500 s buffer (PBST) wash to monitor dissociation. Signals were normalized to control channels containing ~5000 RUs of bovine serum albumin or no proteins. […]
# [2] = test system: MKK7 (P-MKK7/MKK7) in cortical neurons; test: Western blot P-MKK7/MKK7 ratio in cortical neurons; conditions: 100 μM NMDA, versus CTR, n=6
# [3] = test system: 12 DIV cortical neurons; test: LDH assay, intrinsic toxicity of peptides on cortical neurons; assay type: cell-based, rat; conditions: 24 h treatment, 1, 2.5, 5 and 10 μM; one-way ANOVA, P>0.05, n=8
# Experimental: (§1) Neuroprotection was evaluated by an LDH assay.
# [4] = test system: MKK7 (P-MKK7/MKK7) in ipsilateral brain of MCAo rats; test: Western blot P-MKK7/MKK7 ratio in ischemic brain tissue; assay type: in vivo, Sprague–Dawley rats; conditions: 11 mg/kg 30 min before MCAO, n=3, P<0.05
# Experimental: Actin was used as loading control. […] Actin was used as loading control. […] Actin was used as loading control. […] Actin was used as loading control.
# Part I. Ischemia reperfusion (n=43). […] After 90 min, the clip was removed. […] Animals were initially killed 24 h post lesion.
# [5] = test system: cortical neurons (12 h OGD); test: LDH assay, protection against oxygen–glucose deprivation (OGD); assay type: cell-based, rat; conditions: 5 μM, 30 min pre-treatment, n=6, P<0.01
# Experimental: OGD was performed on cortical neurons maintained in an Hypoxia Incubator Chamber (StemCell Technologies, Vancouver, BC, Canada) for 12 h; during the first 4 min, oxygen in the chamber was replaced by a mixture of 95% N2 5% CO2; glucose deprivation was realized by substituting culture medium with glucose-free Neurobasal Medium (Life Technologies).
# as §1
# [6] = test system: middle cerebral artery occlusion (MCAo) in rats; test: MCAo model (electrocoagulation), infarct volume by TTC staining; assay type: in vivo, Sprague–Dawley rats
# [7] = target: T2, human recombinant full-length MKK7 (mitogen-activated protein kinase kinase 7) (human, UniProt O14733-1 1-419); test: SPR; ProteOn XPR36, GL-C chip; ~5000 RU of human recombinant full-length MKK7 immobilised by amine coupling; GADD45β_(69–86) perfused 150 s, then 500 s buffer (PBST) wash; referenced to channels with ~5000 RU bovine serum albumin or no protein; heterogenous ligand binding model; conditions: both partners purified
# T2 construct: the vendor's protein may carry one (surmise); also called recombinant MKK7; source: bought: ProQinase GmbH
# T2 sequence (looked up): T1 sequence (O14733 1-419)
# [8] = test system: MKK3/6; conditions: cited from earlier work
# Description: (§2) We took advantage of the growth arrest and DNA damage-inducible 45β (GADD45β) ability to bind MKK7.[9], [14], [15] GADD45β is involved in the control of cell stress responses in cell cycle, DNA repair and oncogenesis.[9], [16] […] More importantly, GADD45β inhibition is MKK7-specific and has no effect on MKK4, MKK3/6 and MEK1/2 activity.[9] The minimal essential domain of interaction between MKK7 and GADD45β has already been defined (GADD45β60–86 and 69–86 sequences).[15] We here used ...
# [9] = test system: MKK7; conditions: cited from earlier work
# Description: as §2
# [10] = test system: MKK4; conditions: cited from earlier work
# Description: as §2
# [11] = test system: MEK1/2; conditions: cited from earlier work
# Description: as §2
molecule,measurement,setting,value
CC[C@H](C)[C@H](N)C(=O)N[C@@H](C)C(=O)N[C@@H](CC(C)C)C(=O)N[C@@H](CCC(N)=O)C(=O)N[C@H](C(=O)N[C@@H](Cc1c[nH]cn1)C(=O)N[C@@H](Cc1ccccc1)C(=O)N[C@H](C(=O)N[C@@H](CC(C)C)C(=O)N[C@H](C(=O)N[C@@H](CCC(N)=O)C(=O)N[C@@H](CO)C(=O)N[C@@H](Cc1ccccc1)C(=O)N[C@@H](CS)C(=O)N[C@@H](CS)C(=O)N[C@@H](CC(=O)O)C(=O)N[C@@H](CC(N)=O)C(=O)N[C@@H](CC(=O)O)C(N)=O)[C@@H](C)CC)[C@@H](C)O)[C@@H](C)CC [GADD45β69–86] (H-IALQIHFTLIQSFCCDND-NH2),koff,[1],0.0013 s⁻¹
same,kon,[1],315 M⁻¹ s⁻¹
"CN[C@H](CC(=O)O)C(=O)O [NMDA, N-methyl-D-aspartate, reference compound]",increase of MKK7 phosphorylation,[2]; 5 min,1.7 fold
same,increase of MKK7 phosphorylation,[2]; 30 min,1.5 fold
same,increase of MKK7 phosphorylation,[2]; 60 min,1.9 fold
TAT-spacer-GADD45β60–86: cell-permeable MKK7 inhibitor peptide with spacer between TAT and GADD45β residues 60–86,"neuronal death (LDH), intrinsic toxicity",[3],did not induce neuronal death
same,reduction of P-MKK7/MKK7 ratio,[4]; 3 h after ischemia,54%
same,reduction of P-MKK7/MKK7 ratio,[4]; 6 h after ischemia,33%
same,inhibition of neuronal death induced by OGD (LDH),[5],95%
same,reduction of infarct volume (abstract),"[6]; 1 week after MCAo, administration time not given",49%
same,"infarct volume, in words","[6]; 12-h post-ischemic injection, not shown",did not significantly decrease the infarct volume
same,percentage of ischemic volume on the whole rat brain,"[6]; 30 min before lesion, 24 h after lesion, mean±s.d., n=6, control 13.72±4.07% (n=5), P<0.01",7.85±2.03%
same,reduction of infarcted volume,"[6]; ICV (2 μl of 11 μg/μl; legend: 11 mg/kg) 30 min before lesion, 24 h after lesion, P<0.01",43%
same,reduction of infarct volume,"[6]; injected 6 h post ischemia, 1 week after MCAo",44%
same,reduction of infarct volume (Conclusions),"[6]; injected 6 h post ischemia, 1 week after lesion",49%
same,percentage of ischemic volume,"[6]; injected 6 h post lesion, 1 week after MCAo, mean±S.D., n=5, P<0.01",6.95±0.93%
same,percentage of ischemic volume on the whole rat brain,"[6]; injected 6 h post lesion, 24 h after lesion, mean±S.D., n=5, P<0.01",8.04±1.04%
same,reduction of infarct volume,"[6]; pre-ischemic (30 min before) administration, 1 week after MCAo",~50%
same,percentage of ischemic volume,"[6]; pre-ischemic (30 min before) administration, 1 week after MCAo, mean±S.D., n=5, control 12.42±2.22% (n=5), P<0.01",6.22±0.98%
B1,Kd,[7],3.71 µM
B2,"effect on MKK3/6 activity, in words",[8],no effect
same,"binding to MKK7, in words",[9],binds tightly to MKK7
same,"inhibition of MKK7 enzymatic activity, in words",[9],inhibits its enzymatic activity
same,"effect on MKK4 activity, in words",[10],no effect
same,"effect on MEK1/2 activity, in words",[11],no effect
